What was measured:
[1] = Pharmacokinetic assay in rats, oral; type: in vivo; conditions: rat, male SD rats, 5 mg/kg single intragastric administration, plasma
Method: Male SD rats were available from Beijing Vital River Laboratory Animal Technology Co., Ltd. The rats were allocated with three rats per group, and orally administered the suspension of a sample to be tested (5 mg/kg, the suspension is a mixed solution of 10% EtOH, 40% PEG 400 and 50% H2O) by single intragastric administration, respectively. Before the experiment, the animals were fasted overnight, and the fasting time was from 10 hrs before administration to 4 hrs after administration. After administration, a blood sample was taken at 0.25 hr, 0.5 hr, 1 hr, 2 hrs, 4 hrs, 6 hrs, 8 hrs and 24 hrs, respectively. After the animals were narcotized with isoflurane using an anaesthesia machine for small animals, 0.3 mL of whole blood was taken from fundus venous plexus, and placed in a heparin anticoagulant tube. At 4° C., the sample was centrifuged at 4000 rpm for 5 min, and plasma was transferred to a centrifuge tube and preserved at −80° C. until the analysis was started. The sample in plasma was extracted by the protein precipitation method, and the extracted liquid was analyzed by LC/MS/MS.

TrkA^WT kinase = TrkA^WT kinase (Homo sapiens (Human), UniProt P04629); assay: Assay for inhibitory activity (IC50) against TrkA^WT (HTRF); type: biochemical; conditions: TrkA 1 nM, ATP 40 μM, TK peptide 1 μM, 60 min at 23° C.
[2] = target: TrkA^G595R (Kinase domain) kinase (Homo sapiens (Human), UniProt P04629, G595R); assay: Assay for inhibitory activity (IC50) against TrkA^G595R kinase (HTRF); type: biochemical; conditions: kinase 0.2 nM, TK peptide 1 μM, 120 min at 23° C.
TrkA^G595R (Kinase domain) kinase, sequence (P04629 510-781 G595R): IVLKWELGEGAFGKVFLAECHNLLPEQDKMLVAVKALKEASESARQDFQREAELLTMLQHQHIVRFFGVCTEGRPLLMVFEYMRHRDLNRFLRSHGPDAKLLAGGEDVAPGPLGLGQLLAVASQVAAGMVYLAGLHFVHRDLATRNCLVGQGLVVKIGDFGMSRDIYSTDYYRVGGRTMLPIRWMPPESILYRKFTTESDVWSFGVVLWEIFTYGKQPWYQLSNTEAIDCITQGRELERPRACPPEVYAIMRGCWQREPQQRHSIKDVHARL

TrkA^WT kinase, sequence (P04629 33-796): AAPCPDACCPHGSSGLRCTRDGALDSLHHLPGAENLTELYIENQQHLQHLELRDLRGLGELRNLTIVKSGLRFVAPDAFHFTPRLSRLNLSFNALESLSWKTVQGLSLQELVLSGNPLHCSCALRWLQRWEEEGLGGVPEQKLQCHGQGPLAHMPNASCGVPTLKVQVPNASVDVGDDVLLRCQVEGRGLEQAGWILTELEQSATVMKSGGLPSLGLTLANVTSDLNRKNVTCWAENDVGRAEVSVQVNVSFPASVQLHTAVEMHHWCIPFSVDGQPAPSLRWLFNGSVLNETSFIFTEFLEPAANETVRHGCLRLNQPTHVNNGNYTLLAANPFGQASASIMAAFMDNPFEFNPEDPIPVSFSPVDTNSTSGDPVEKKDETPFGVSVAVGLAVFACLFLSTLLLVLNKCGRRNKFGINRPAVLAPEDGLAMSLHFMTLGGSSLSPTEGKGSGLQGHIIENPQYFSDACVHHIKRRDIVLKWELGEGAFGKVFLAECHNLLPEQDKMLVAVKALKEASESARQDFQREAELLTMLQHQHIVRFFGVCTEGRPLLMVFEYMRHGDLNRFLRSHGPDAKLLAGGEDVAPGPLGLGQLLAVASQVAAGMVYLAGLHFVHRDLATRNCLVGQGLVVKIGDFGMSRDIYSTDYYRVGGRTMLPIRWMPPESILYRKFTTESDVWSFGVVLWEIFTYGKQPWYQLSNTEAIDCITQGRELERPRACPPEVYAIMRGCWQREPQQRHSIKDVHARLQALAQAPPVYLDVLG

SMILES: C[C@H]1CNC(=O)c2c(N)nn3ccc(nc23)N2C[C@@H](F)C[C@@H]2c2cc(F)cnc2O1 [Example 15, (1^3E,1^4E,2^2R,2^4S,5S)-1^2-amino-2^4,3^5-difluoro-5-methyl-4-oxa-7-aza-1(5,3)-pyrazolo[1,5-a] pyrimidine--3(3,2)-pyridine-2(1,2)-pyrrolidylcyclooctanephane-8-one]
- AUC(0-inf) [1]: 494 ng·h/mL
- Cmax [1]: 285 ng/mL
- Tmax [1]: 0.58 h
- half-life [1]: 1.53 h
- IC50 (TrkA^WT kinase): 0.45 ± 0.18 nM
- IC50 [2]: 0.53 ± 0.08 nM
